“Also recorded” adds a separate entry of the source. Each block holds one compound with its values, some of them ahead of it.
Columns and labels:
Olfr177 = Olfr177 (Mus musculus, UniProt E9Q7W1); test: cAMP-dependent dual luciferase reporter assay, Olfr177 expressed in HEK293T cells; assay type: cell-based; settings: for EC50: HEK293T cells expressing Olfr177, Firefly:Renilla ratio, 4 h, dose response of at least 6 concentrations, read-out: EC50 for activation of Olfr177; for Olfr177 activation (cAMP response, Firefly:Renilla), in words: HEK293T cells expressing Olfr177
Description: (§1) For ORs whose trafficking conditions could be established as described above, an unbiased ligand screen using a dual-luciferase reporter assay (Promega) was used to identify potential ligands. Briefly, ORs were transiently transfected (Lipofectamine 2000, Invitrogen) in triplicate into HEK293T cells along with constructs encoding for CREB-dependent luciferase (Firefly) and a constitutively expressed luciferase (Renilla), along with any accessory proteins previously established to be required for effective cell-surface trafficking. Additional surface labeling experiments were performed with the Firefly and Renilla constructs to ensure effective trafficking was not lost under these transfection conditions. OR activation leads to a rise in cAMP which drives an increase in Firefly luciferase expression. Firefly activity is normalized to the activity of the Renilla luciferase to control for variation in cell number and transfection efficiency. Data were collected using a FLUOstar Omega automated plate reader (BMG LabTech, Cary, NC, United States). Cells were allowed to incubate for at least 30 min in CD293 minimal media, and were then bathed with potential odorants diluted in minimal media for 4 h before measuring Firefly and Renilla-derived luminescence. Initially, screening was performed using odorant mixes that are grouped mainly by functional groups (BzB: nonanal, heptanal, valeraldehyde; BzC: carvone, eugenol, cinnamaldehyde; MA: amyl acetate, 3-octanone, acetophenone; OXLK: 2,3-butanedione, pyruvaldehyde, acetic acid, 1,2-ethanedithiol, 2-butanone; THI-DI: 1,6-hexanedithiol, 1,2-ethanedithiol, 2-methyl-1-propanethiol, 1,2-butanedithiol, 2,3-butanedithiol). These mixtures are known to elicit activation of a large number of olfactory sensory neurons and thus cover a wide range of ‘odorant space’ ([Pluznick et al., 2013]), followed by any known ligands to ORs in the same family as those being tested, as well as physiologically relevant substances. A complete list of chemicals used for screening is found in Supplementary Table 1 and all chemicals tested were obtained from Sigma or Fisher Scientific. To begin, all compounds screened were tested at a minimum of two concentrations (100–300 μm and 1–5 mM) to cover a wide range of potential activation. For each assay, Olfr78 or Olfr1393 and known activators of these receptors (Propionate and Cycloheptanol, respectively) were used as positive controls. In order to determine specific activation, potential activators of one receptor were also tested on at least one other OR simultaneously. Negative controls were performed with both media, and media containing DMSO. […] A significant rise in Firefly:Renilla over baseline was determined by multiple T-Tests ([…] deemed significant).

Olfr57 = Olfr57 (Mus musculus, UniProt Q8VGU7); test: cAMP-dependent dual luciferase reporter assay, Olfr57 expressed in HEK293T cells; assay type: cell-based; settings: for EC50: HEK293T cells expressing Olfr57, Firefly:Renilla ratio, 4 h, dose response of at least 6 concentrations, read-out: EC50 for activation of Olfr57; for Olfr57 activation (cAMP-mediated response), in words: HEK293T cells expressing Olfr57
Description: as §1

Candida albicans = system: Candida albicans; design: method as in Manoharan et al., 2017; settings: ref Manoharan et al., 2017; cited from earlier work
MOR139-1 = system: MOR139-1; design: method as in Hiroaki Matsunami, 2010; settings: ref Hiroaki Matsunami, 2010; cited from earlier work
CYP2A6 = system: CYP2A6; design: method as in Gyoubu and Miyazawa, 2007; Miyazawa and Gyoubu, 2007; settings: ref Gyoubu and Miyazawa, 2007; cited from earlier work
[1] = system: Olfr16 and its human homolog, OR10J5; design: method as in von der Weid et al., 2015; Tong et al., 2017; settings: ref von der Weid et al., 2015; Tong et al., 2017; cited from earlier work
[2] = system: Olfr78 and its human homolog, OR51E2; design: method as in Pluznick et al., 2013; settings: ref Pluznick et al., 2013; cited from earlier work
Olfr544 = system: Olfr544; design: method as in Abaffy et al., 2007; Kang et al., 2015; Thach et al., 2017; settings: ref Abaffy et al., 2007; Kang et al., 2015; Thach et al., 2017; cited from earlier work
OR5K1 = system: OR5K1; design: method as in Wilkin Françoise et al., 2015; settings: ref Wilkin Françoise et al., 2015; cited from earlier work
heme oxygenase = system: heme oxygenase; design: method as in Parra, 2012; settings: hepatocellular carcinoma line (HepG2); ref Parra, 2012; cited from earlier work
phosphodiesterase = system: phosphodiesterase; design: method as in Parra, 2012; settings: ref Parra, 2012; cited from earlier work

Chain of Olfr57 (Q8VGU7 entry or part of it): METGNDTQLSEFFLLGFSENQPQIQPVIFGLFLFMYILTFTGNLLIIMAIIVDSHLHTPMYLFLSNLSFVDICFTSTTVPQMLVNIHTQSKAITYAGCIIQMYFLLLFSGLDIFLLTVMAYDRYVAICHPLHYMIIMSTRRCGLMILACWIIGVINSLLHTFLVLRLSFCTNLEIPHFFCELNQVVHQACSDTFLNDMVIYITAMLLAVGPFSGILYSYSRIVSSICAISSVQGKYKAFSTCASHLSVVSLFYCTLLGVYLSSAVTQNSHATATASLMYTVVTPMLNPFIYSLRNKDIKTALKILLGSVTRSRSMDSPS
Chain of Olfr177 (E9Q7W1 entry or part of it): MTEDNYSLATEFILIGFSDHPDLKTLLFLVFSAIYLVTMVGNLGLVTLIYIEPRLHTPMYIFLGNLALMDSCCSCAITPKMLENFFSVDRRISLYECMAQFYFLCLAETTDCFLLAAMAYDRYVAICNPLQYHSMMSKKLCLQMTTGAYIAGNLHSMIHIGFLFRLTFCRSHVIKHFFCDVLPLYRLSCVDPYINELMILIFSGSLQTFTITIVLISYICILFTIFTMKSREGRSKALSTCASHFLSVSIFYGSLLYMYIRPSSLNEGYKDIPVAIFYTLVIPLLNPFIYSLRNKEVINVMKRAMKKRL

- EC50 (Olfr177): 1.67 mM
Compound: CCc1nccnc1C [2-ethyl-3-methylpyrazine]

Compound: CC1(C)C2CCC1(C)C(O)C2 (centres unmarked) [borneol]
- EC50 (Olfr57): 240 µM
- antibiofilm and antihyphal properties (Candida albicans): antibiofilm and antihyphal properties

Compound: (1R)-(+)-camphor
- Olfr57 activation (cAMP-mediated response), in words (Olfr57): weakly activate
- Response of MOR139-1 (MOR139-1): respond
- antibiofilm and antihyphal properties (Candida albicans): antibiofilm and antihyphal properties

Compound: CC12CCC(C1)C(C)(C)C2=O [(1R)-(-)-fenchone]
- EC50 (Olfr57): 94 µM
- metabolized in the liver by microsomal enzyme CYP2A6 (CYP2A6): metabolized
- antibiofilm and antihyphal properties (Candida albicans): antibiofilm and antihyphal properties

Compound: CC(C)(O)CCCC1=CCC(C=O)CC1 (centres unmarked) [lyral]
- Activation of Olfr16 and OR10J5 [1]: activated

Compound: CC(=O)/C=C/C1=C(C)CCCC1(C)C [β-ionone]
- Response of Olfr78 and OR51E2 [2]: respond

Compound: C=C1CCC2CC1C2(C)C (centres unmarked) [pinene]
- Olfr57 activation (cAMP-mediated response), in words (Olfr57): did not elicit a cAMP-mediated response; also recorded: non-activators

Compound: CC(=O)c1ccccc1 [Acetophenone]
- Activation of Olfr16 and OR10J5 [1]: activated

Compound: O=C1CC2CC[C@H]1C2 [norcamphor]
- Olfr57 activation (cAMP-mediated response), in words (Olfr57): did not elicit a cAMP-mediated response; also recorded: non-activators

Compound: c1cnccn1 [pyrazine]
- Olfr177 activation (cAMP response, Firefly:Renilla), in words (Olfr177): did not elicit OR activation

- EC50 (Olfr57): 45 µM
Compound: CC12CCC(C1)C(C)(C)C2O (centres unmarked) [fenchyl alcohol]
- antibiofilm and antihyphal properties (Candida albicans): antibiofilm and antihyphal properties

Compound: CC(C)[C@]12CC(=O)[C@H](C)[C@H]1C2 [thujone]
- Olfr57 activation (cAMP-mediated response), in words (Olfr57): did not elicit a cAMP-mediated response; also recorded: non-activators

Compound: CC1(C)C2CCC1(CS(=O)(=O)O)C(=O)C2 (centres unmarked) [camphorsulfonic acid]
- Olfr57 activation (cAMP-mediated response), in words (Olfr57): did not elicit a cAMP-mediated response; also recorded: non-activators

Compound: O=C(O)CCCCCCCC(=O)O [azelaic acid]
- Activation of Olfr544 (Olfr544): activated

- Olfr177 activation (cAMP response, Firefly:Renilla), in words (Olfr177): failed to plateau
Compound: Cc1cnc(C)c(C)n1 [2,3,5-trimethylpyrazine]

- EC50 (Olfr57): 234 µM
Compound: CC12CCC(CC1)C(C)(C)O2 [eucalyptol]

Compound: C=C1C2CCC(C2)C1(C)C (centres unmarked) [camphene]
- Olfr57 activation (cAMP-mediated response), in words (Olfr57): did not elicit a cAMP-mediated response; also recorded: non-activators

Compound: CC1=CC[C@@]23CC1C(C)(C)[C@@H]2CC[C@H]3C [α-cedrene]
- Activation of Olfr16 and OR10J5 [1]: activated

- Olfr177 activation (cAMP response, Firefly:Renilla), in words (Olfr177): significant increase
- EC50 (Olfr177): 1.07 mM
Compound: CCc1ncc(C)nc1C [2-ethyl-3,5-dimethylpyrazine]
- Activation of OR5K1 (OR5K1): activated
- heme oxygenase activity (heme oxygenase): induced
- phosphodiesterase activity (phosphodiesterase): inhibit
